# Measured values as given in patent publication US20050107289A1, “Anti-microbial peptides and compositions” (priority 2001, published 2005).
# Structures can show the parent of a compound that is named as a salt. Where two headings read alike, the source gives them in different places. Non-standard residues stand in square brackets, D forms with d. Residues, ends and D or L forms follow the SMILES beside them. Nle = CCCC[C@H](N)C(=O)O
# How the values were obtained:
# [1] = test system: S. aureus (MRSA) ATCC 33591; format: cell-based, Staphylococcus aureus; details: Table 9
# Summary of the method: (§1)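 Overnight bacterial cultures, diluted 4000 times to roughly 2.5×10^5 cfu/ml, are added to 2-fold peptide dilution series. Peptide series span approximately 400-2 μg/ml as prepared in DMSO/aqueous sucrose, before mixing with inoculum. Testing follows NCCLS M7-A4 broth dilution, chiefly the microdilution format.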
# [2] = test system: vancomycin-resistant Enterococus faecalis (VRE)(ATCC 51575); format: cell-based, Enterococcus faecalis; design: key to VRE (in vitro activity): peptide concentration in μg/ml (broth dilution assay); details: Table 9
# Summary of the method: as §1
# murine red blood cells = assay: Red blood cell hemolysis; format: cell-based, mouse
# Summary of the method: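 Hemolysis read as A560 of supernatant, scaled between saline (0%) and 1% Triton X-100 (100%) controls; peptides were serially diluted onto 5% murine red cells in saline plus 10% FBS and incubated 30 min at 37° C.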
# [3] = media b: cation adjusted Meuller Hinton broth (MHBII)
# [4] = media c: Brain Heart Infusion (BHI)
# [5] = media a: anti-microbial media-3 (AM-3)
Structure (SMILES),"MRSA (in vitro activity) [1, 3]","VRE (in vitro activity) [2, 4]",RBC Hemolysis (HD50) (murine red blood cells),"MRSA (in vitro activity) [1, 5]",VRE (in vitro activity) ([2]; media a: AM-3),VRE (in vitro activity) ([2]; media b: MHBII),"MRSA (in vitro activity) ([1]; media b: cation adjusted Meuller Hinton broth (MHBII), listed as [KSKLRLRL] (105))","VRE (in vitro activity) ([2]; media c: Brain Heart Infusion (BHI), listed as [KSKLRLRL] (105))"
"CC(C)C[C@@H]1NC(=O)[C@@H](Cc2c[nH]c3ccccc23)NC(=O)[C@H](CCCCN)NC(=O)[C@@H](Cc2c[nH]cn2)NC(=O)[C@H](CCCCN)NC(=O)[C@@H](Cc2c[nH]cn2)NC(=O)[C@H](CCCCN)NC(=O)[C@@H](Cc2c[nH]c3ccccc23)NC1=O [SEQ ID NO:85, [KHKHKWLW]] (cyclo(K[dH]K[dH]K[dW]L[dW]))",6,6,150,–,–,–,–,–
"CC(C)C[C@@H]1NC(=O)[C@@H](Cc2c[nH]c3ccccc23)NC(=O)[C@H](CO)NC(=O)[C@@H](Cc2c[nH]c3ccccc23)NC(=O)[C@H](CCCCN)NC(=O)[C@@H](Cc2c[nH]c3ccccc23)NC(=O)[C@H](CCCCN)NC(=O)[C@@H](Cc2c[nH]c3ccccc23)NC1=O [SEQ ID NO:107, [KWKWSWLW]] (cyclo(K[dW]K[dW]S[dW]L[dW]))",12,12,150,–,–,–,–,–
"CC(C)C[C@H]1NC(=O)[C@H](CCCCN)NC(=O)[C@@H](CC(N)=O)NC(=O)[C@H](CCC(N)=O)NC(=O)[C@@H](CC(N)=O)NC(=O)[C@H](CCCCN)NC(=O)[C@@H](CC(C)C)NC(=O)[C@H](Cc2c[nH]c3ccccc23)NC1=O [SEQ ID NO:90, [KNQNKLWL]] (cyclo(K[dN]Q[dN]K[dL]W[dL]))",>200,>200,>200,–,–,–,–,–
"CC[C@H](C)[C@@H]1NC(=O)[C@@H](CO)NC(=O)[C@H](CCCCN)NC(=O)[C@@H]([C@H](C)O)NC(=O)[C@H]([C@@H](C)CC)NC(=O)[C@@H](CCCNC(=N)N)NC1=O [SEQ ID NO:132, [KSIRIT]] (cyclo(K[dS]I[dR]I[dT]))",>200,>200,175,–,–,–,–,–
"CC(C)C[C@@H]1NC(=O)[C@@H](Cc2c[nH]c3ccccc23)NC(=O)[C@H](CCC(N)=O)NC(=O)[C@@H](Cc2c[nH]cn2)NC(=O)[C@H](CCCCN)NC(=O)[C@@H](Cc2c[nH]c3ccccc23)NC1=O [SEQ ID NO:120, [KHQWLW]] (cyclo(K[dH]Q[dW]L[dW]))",–,–,115.0,43,57,–,–,–
"CC(C)C[C@@H]1NC(=O)[C@@H](Cc2ccccc2)NC(=O)[C@H](CCCCN)NC(=O)[C@@H](CCCCN)NC(=O)[C@H](CCCCN)NC(=O)[C@@H](Cc2ccccc2)NC(=O)[C@H](CC(C)C)NC(=O)[C@@H](Cc2ccccc2)NC1=O [SEQ ID NO:51, [KKKFLFLF]] (cyclo(K[dK]K[dF]L[dF]L[dF]))",18,75,>300,–,–,–,–,–
"CCCC[C@@H]1NC(=O)[C@@H](CC(C)C)NC(=O)[C@H](CCCCN)NC(=O)[C@@H](CO)NC(=O)[C@H](CCCCN)NC(=O)[C@@H](CC(C)C)NC(=O)[C@H](CCCC)NC(=O)[C@@H](CC(C)C)NC1=O [SEQ ID NO:59, [KSKLNleLNleL]] (cyclo(K[dS]K[dL][Nle][dL][Nle][dL]))",220,>200,>220,–,–,–,–,–
"CC(C)C[C@H]1NC(=O)[C@H](Cc2c[nH]c3ccccc23)NC(=O)[C@@H](CCCNC(=N)N)NC(=O)[C@H](CCC(N)=O)NC(=O)[C@@H](CCCCN)NC(=O)[C@H](Cc2c[nH]c3ccccc23)NC(=O)[C@@H](CC(C)C)NC(=O)[C@H](Cc2c[nH]c3ccccc23)NC1=O [[KQRWLWLW-HCl] (8), cyclo-(D-Lys-Gln-D-Arg-Trp-D-Leu-Trp-D-Leu-Trp)] (cyclo([dK]Q[dR]W[dL]W[dL]W))",8,8,70,–,–,–,–,–
"CC(C)C[C@H]1NC(=O)[C@H](Cc2c[nH]c3ccccc23)NC(=O)[C@@H](Cc2c[nH]cn2)NC(=O)[C@H](CCCCN)NC(=O)[C@@H](Cc2c[nH]cn2)NC(=O)[C@H](CCCCN)NC(=O)[C@@H](CC(C)C)NC(=O)[C@H](Cc2c[nH]c3ccccc23)NC1=O [SEQ ID NO:73, [KHKHWLWL]] (cyclo(K[dH]K[dH]W[dL]W[dL]))",18,18,150,–,–,–,–,–
"CC(C)C[C@H]1NC(=O)[C@H](Cc2ccccc2)NC(=O)[C@@H](CC(C)C)NC(=O)[C@H](CCCCN)NC(=O)[C@@H]([C@H](C)O)NC(=O)[C@H](CCCCN)NC(=O)[C@@H](CC(C)C)NC(=O)[C@H](Cc2ccccc2)NC1=O [SEQ ID NO:65, [KTKLFLFL]] (cyclo(K[dT]K[dL]F[dL]F[dL]))",60,>240,>240,–,–,–,–,–
"CC(C)C[C@@H]1NC(=O)[C@@H](Cc2c[nH]c3ccccc23)NC(=O)[C@H](CCC(N)=O)NC(=O)[C@@H](CC(N)=O)NC(=O)[C@H](CCCCN)NC(=O)[C@@H](Cc2c[nH]c3ccccc23)NC1=O [SEQ ID NO:123, [KNQWLW]] (cyclo(K[dN]Q[dW]L[dW]))",–,–,>74,>74,>74,–,–,–
"N=C(N)NCCC[C@H]1NC(=O)[C@H](CCCCN)NC(=O)[C@@H](Cc2ccccc2)NC(=O)[C@H](Cc2c[nH]c3ccccc23)NC(=O)[C@@H](Cc2ccccc2)NC(=O)[C@H](CCCCN)NC(=O)[C@@H](Cc2ccccc2)NC(=O)[C@H](CCC(N)=O)NC1=O [SEQ ID NO:102, [KRQFKFWF]] (cyclo(K[dR]Q[dF]K[dF]W[dF]))",12,12,>200,–,–,–,–,–
"C[C@H]1NC(=O)[C@H](CCCCN)NC(=O)[C@@H](CC(N)=O)NC(=O)[C@H](CCC(N)=O)NC(=O)[C@@H](C)NC(=O)[C@H](CCCCN)NC(=O)[C@@H](CC(N)=O)NC(=O)[C@H](Cc2c[nH]c3ccccc23)NC1=O [SEQ ID NO:96, [KAQNKAWN]] (cyclo(K[dA]Q[dN]K[dA]W[dN]))",>200,>200,>200,–,–,–,–,–
"CC(C)C[C@H]1NC(=O)[C@H](Cc2c[nH]c3ccccc23)NC(=O)[C@@H](Cc2c[nH]c3ccccc23)NC(=O)[C@H](CCCCN)NC(=O)[C@@H](CO)NC(=O)[C@H](CCCCN)NC(=O)[C@@H](CC(C)C)NC(=O)[C@H](Cc2c[nH]c3ccccc23)NC1=O [SEQ ID NO:67, [KWWLWLKS]] (cyclo(K[dW]W[dL]W[dL]K[dS]))",7,–,>153,–,–,10,–,–
"CC(C)C[C@@H]1NC(=O)[C@@H](Cc2c[nH]c3ccccc23)NC(=O)[C@H](CCCCN)NC(=O)[C@@H](Cc2ccccc2)NC(=O)[C@H](CCCCN)NC(=O)[C@@H](Cc2c[nH]c3ccccc23)NC1=O [SEQ ID NO:128, [KFKWLW]] (cyclo(K[dF]K[dW]L[dW]))",–,–,>61,14,43,–,–,–
"CC(C)C[C@@H]1NC(=O)[C@@H](Cc2c[nH]c3ccccc23)NC(=O)[C@H](CCCCN)NC(=O)[C@@H](CCCCN)NC(=O)[C@H](CCCCN)NC(=O)[C@@H](Cc2c[nH]c3ccccc23)NC1=O [SEQ ID NO:121, [KKKWLW]] (cyclo(K[dK]K[dW]L[dW]))",–,–,>111,23,51,–,–,–
"CC(C)C[C@H]1NC(=O)[C@H](Cc2c[nH]c3ccccc23)NC(=O)[C@@H](Cc2c[nH]c3ccccc23)NC(=O)[C@H](CCCCN)NC(=O)[C@@H](Cc2c[nH]cn2)NC(=O)[C@H](Cc2c[nH]c3ccccc23)NC(=O)[C@@H](CC(C)C)NC(=O)[C@H](Cc2c[nH]c3ccccc23)NC1=O [SEQ ID NO:43, [KWWLWLWH]] (cyclo(K[dW]W[dL]W[dL]W[dH]))",–,–,>23,13,17,–,–,–
"CC(C)C[C@H]1NC(=O)[C@H](CCCCN)NC(=O)[C@@H](Cc2c[nH]cn2)NC(=O)[C@H](CCC(N)=O)NC(=O)[C@@H](Cc2c[nH]cn2)NC(=O)[C@H](CCCCN)NC(=O)[C@@H](CC(C)C)NC(=O)[C@H](Cc2c[nH]c3ccccc23)NC1=O [SEQ ID NO:86, [KHQHKLWL]] (cyclo(K[dH]Q[dH]K[dL]W[dL]))",100,100,>200,–,–,–,–,–
"CC(C)C[C@@H]1NC(=O)[C@@H](Cc2c[nH]c3ccccc23)NC(=O)[C@H](CCC(N)=O)NC(=O)[C@@H](Cc2ccccc2)NC(=O)[C@H](CCCCN)NC(=O)[C@@H](Cc2c[nH]c3ccccc23)NC1=O [SEQ ID NO:129, [KFQWLW]] (cyclo(K[dF]Q[dW]L[dW]))",–,–,>81,25,10,–,–,–
"CC(C)C[C@H]1NC(=O)[C@H](CCCCN)NC(=O)[C@@H](CO)NC(=O)[C@H](CCCCN)NC(=O)[C@@H](CC(C)C)NC(=O)[C@H](CCCNC(=N)N)NC(=O)[C@@H](CC(C)C)NC(=O)[C@H](CCCNC(=N)N)NC1=O [SEQ ID NO:105, [KSKLRLRL]] (cyclo(K[dL]R[dL]R[dL]K[dS]))",–,–,>240,–,–,–,>240,>240
"CC(C)C[C@H]1NC(=O)[C@H](CCCCN)NC(=O)[C@@H](CC(C)C)NC(=O)[C@H](Cc2c[nH]c3ccccc23)NC(=O)[C@@H](CC(C)C)NC(=O)[C@H](Cc2c[nH]c3ccccc23)NC(=O)[C@@H](CC(C)C)NC(=O)[C@H](Cc2c[nH]c3ccccc23)NC1=O [SEQ ID NO:41, [KLWLWLWL]] (cyclo(K[dL]W[dL]W[dL]W[dL]))",12,25,30,–,–,–,–,–
